From patent publication US20230365566A1, “HETEROCYCLIC AMIDES AND THEIR USE FOR MODULATING SPLICING” (REMIX THERAPEUTICS INC., priority 2020, published 2023)
Counter-ions that a name gives are not always drawn.

Experiments:
Assay type in all cases: cell-based
[1] = system: Target C CJ mRNA; assay: Gene panel canonical junction qPCR assay, Target C; details: protocol of Example 42, read-out: Target C IC50 (decrease in CJ mRNA levels)
Description: (§1) Compounds described herein were used to modulate RNA transcript abundance in cells. The expression of a target mRNA was measured by detecting the formation of an exon-exon junction in the canonical transcript (CJ). A compound mediated exon-inclusion event was detected by observing an increase in formation of a new junction with an alternative exon (AJ). Real-time qPCR assays were used to detect these splicing switches and interrogate the potency of various compounds towards different target genes. A high-throughput real time quantitative PCR (RT-qPCR) assay was developed to measure these two isoforms of the mRNA (CJ and AJ) for an exemplary gene, HTT, together with a control housekeeping gene, GAPDH or GUSB or PPIA, used for normalization. Briefly, the A673 or K562 cell line was treated with various compounds described herein (e.g., compounds of Formula (I)). After treatment, the levels of the HTT mRNA targets were determined from each sample of cell lysate by cDNA synthesis followed by qPCR.
(§2) The A673 cell line was cultured in DMEM with 10% FBS. Cells were diluted with full growth media and plated in a 96-well plate (15,000 cells in 100 ul media per well). The plate was incubated at 37° C. with 5% CO2 for 24 hours to allow cells to adhere. An 11-point 3-fold serial dilution of the compounds was made in DMSO then diluted in media in an intermediate plate. Compounds were transferred from the intermediate plate to the cell plate with the top dose at a final concentration of 10 uM in the well. Final DMSO concentration was kept at or below 0.25%. The cell plate was returned to the incubator at 37° C. with 5% CO2 for an additional 24 hours.
(§3) The K562 cell line was cultured in IMDM with 10% FBS. For K562, cells were diluted with full growth media and plated in either a 96-well plate (50,000 cells in 50 uL media per well) or a 384-well plate (8,000-40,000 cells in 45 uL media per well). An 11-point 3-fold serial dilution of the compounds were made in DMSO then diluted in media in an intermediate plate. Compound was transferred from the intermediate plate to the cell plate with the top dose at a final concentration of 10 uM in the well. Final DMSO concentration was kept at or below 0.25%. Final volume was 100 uL for 96-well plate and 50 uL for 384-well plate. The cell plate was then placed in an incubator at 37° C. with 5% CO2 for 24 hours.
(§4) The data analysis was performed by first determining the ACt vs the housekeeper gene. This ACt was then normalized against the DMSO control (AACt) and converted to RQ (relative quantification) using the 2^(−ΔΔCt) equation. The RQ were then converted to a percentage response by arbitrarily setting an assay window of 3.5 ΔCt for HTT-CJ and an assay window of 9 ΔCt for HTT-AJ. […] The percentage response was then fitted to the 4 parametric logistic equation to evaluate the concentration dependence of compound treatment. The increase in AJ mRNA is reported as AC50 (compound concentration having 50% response in AJ increase) while the decrease in CJ mRNA levels is reported as IC50 (compound concentration having 50% response in CJ decrease).
(§5) Additional studies were carried out for a larger panel of genes using the protocol provided above. The junction between flanking upstream and downstream exons was used to design canonical junction qPCR assays. At least one of the forward primer, reverse primer or the CY5-labeled 5′ nuclease probe (with 3′ quencher such as ZEN/Iowa Black FQ) was designed to overlap with the exon junction to capture the CJ mRNA transcript. BLAST was used to confirm the specificity of the probeset and parameters such as melting temperature, GC content, amplicon size, and primer dimer formation are considered during their design. Data for the decrease in CJ mRNA levels for three exemplary genes (HTT, SMN2, and Target C) analyzed in this panel are reported as IC50 (compound concentration having 50% response in CJ decrease).

[2] = system: HTT mRNA canonical junction (CJ); assay: Splicing RT-qPCR assay, decrease of HTT canonical junction (CJ) mRNA; details: A673 or K562 cells, 24 hours compound treatment, concentration having 50% response in CJ decrease
Description: as §1, §2, §3
(§6) The cells were then gently washed with 50 uL-100 uL cold PBS before proceeding to addition of lysis buffer. 30 uL-50 uL of room temperature lysis buffer with DNAse I (and optionally RNAsin) was added to each well. Cells were shaken/mixed thoroughly at room temperature for 5-10 minutes for lysis to take place and then 3 uL-5 uL of room temperature stop solution was added and wells were shaken/mixed again. After 2-5 minutes, the cell lysate plate was transferred to ice for RT-qPCR reaction setup. The lysates could also be frozen at −80° C. for later use.
(§7) In some cases, a direct lysis buffer was used. An appropriate volume of 3× lysis buffer (10 mM Tris, 150 mM NaCl, 1.5%-2.5% Igepal and 0.1-1 U/uL RNAsin, pH 7.4) was directly added to either K562 or A673 cells in media and mixed by pipetting 3 times. The plates were then incubated at room temperature with shaking/rocking for 20-50 minutes to allow for lysis to take place. After this time, the cell lysate plate was transferred to ice to set up for the RT-qPCR reactions. The lysates could also be frozen at −80° C. for later use.
(§8) To set up 10 uL RT-qPCR reactions, cell lysates were transferred to 384-well qPCR plates containing the master mix according to the table below. The plates were sealed, gently vortexed, and spun down before the run. The volumes were adjusted accordingly in some instances where the reaction was carried in 20 uL. The table below summarizes the components of the RT-qPCR reactions:
(§9) The RT-qPCR reaction was performed using a QuantStudio (ThermoFisher) under the following fast cycling conditions. […]

[3] = system: HTT mRNA alternative junction (AJ); assay: Splicing RT-qPCR assay, increase of HTT alternative junction (AJ) mRNA; details: A673 or K562 cells, 24 hours compound treatment, concentration having 50% response in AJ increase
Description: as §1, §2, §3, §6, §7, §8, §9

[4] = system: HTT CJ mRNA; assay: Gene panel canonical junction qPCR assay, HTT; details: protocol of Example 42, read-out: HTT IC50 (decrease in CJ mRNA levels)
Description: as §1, §2, §3, §4, §5

[5] = system: SMN2 CJ mRNA; assay: Gene panel canonical junction qPCR assay, SMN2; details: protocol of Example 42, read-out: SMN2 IC50 (decrease in CJ mRNA levels)
Description: as §1, §2, §3, §4, §5

Compound	IC50 [1]	IC50 [4]	IC50 [5]	AC50 [2]	AC50 [3]
Cc1cn2nc(NC(=O)c3ccc(C4CCNCC4)c4cc(C)oc34)cc(C)c2n1 [Compound 118, N-[2,8-dimethylimidazo[1,2-b]pyridazin-6-yl]-2-methyl-4-(piperidin-4-yl)-1-benzofuran-7-carboxamide]	> 10 µM	1 to 10 µM		1 to 10 µM	1 to 10 µM
Cc1cn2nc(NC(=O)c3ccc(C4CCNCC4)c4ccoc34)cc(C)c2n1 [Compound 119, N-[2,8-dimethylimidazo[1,2-b]pyridazin-6-yl]-4-(piperidin-4-yl)-1-benzofuran-7-carboxamide]	> 10 µM	1 to 10 µM	0.1 to 1 µM	1 to 10 µM	> 10 µM
Cc1cn2cc(NC(=O)c3ccc(N4CCNCC4)c4nc(C)oc34)cc(F)c2n1 [Compound 140]		1 to 10 µM	0.1 to 1 µM	1 to 10 µM	1 to 10 µM
Cc1cn2cc(NC(=O)c3ccc(N4CCNCC4)c4oc(C)nc34)cc(F)c2n1 [Compound 141, N-[8-fluoro-2-methylimidazo[1,2-a]pyridin-6-yl]-2-methyl-7-(piperazin-1-yl)-1,3-benzoxazole-4-carboxamide hydrochloride]	0.1 to 1 µM	< 0.1 µM	< 0.1 µM	< 0.1 µM	< 0.1 µM
Cc1cn2cc(NC(=O)c3ccc(N4CCNCC4)c4cc(C)oc34)cc(F)c2n1 [Compound 142, N-[8-fluoro-2-methylimidazo[1,2-a]pyridin-6-yl]-2-methyl-4-(piperazin-1-yl)-1-benzofuran-7-carboxamide]	0.1 to 1 µM	1 to 10 µM	< 0.1 µM	1 to 10 µM	1 to 10 µM
Cc1cn2cc(NC(=O)c3ccc(N4CCNCC4)c4cn(C)nc34)cc(F)c2n1 [Compound 143, N-[8-fluoro-2-methylimidazo[1,2-a]pyridin-6-yl]-2-methyl-4-(piperazin-1-yl) indazole-7-carboxamide]	< 0.1 µM	0.1 to 1 µM	< 0.1 µM	0.1 to 1 µM	0.1 to 1 µM
Cc1cn2cc(NC(=O)c3ccc(C4CCNCC4)c4cc(C)oc34)cc(F)c2n1 [Compound 145, N-[8-fluoro-2-methylimidazo[1,2-a]pyridin-6-yl]-2-methyl-4-(piperidin-4-yl)-1-benzofuran-7-carboxamide]	0.1 to 1 µM	1 to 10 µM	< 0.1 µM	1 to 10 µM	1 to 10 µM
Cc1cn2nc(-c3ccc(C(=O)NC4CCNCC4)c4oc(C)cc34)cc(C)c2n1 [Compound 282, 4-{2,8-dimethylimidazo[1,2-b]pyridazin-6-yl}-2-methyl-N-(piperidin-4-yl)-1-benzofuran-7-carboxamide]				1 to 10 µM	1 to 10 µM
Cc1cn2cc(-c3ccc(C(=O)NC4CCNCC4)c4oc(C)cc34)cc(F)c2n1 [Compound 283, 4-{8-fluoro-2-methylimidazo[1,2-a]pyridin-6-yl}-2-methyl-N-(piperidin-4-yl)-1-benzofuran-7-carboxamide]				1 to 10 µM	> 10 µM
CCn1cc2c(N3CCNCC3)ccc(C(=O)Nc3cc(Cl)c4nc(C)cn4c3)c2n1 [Compound 284, N-{8-chloro-2-methylimidazo[1,2-a]pyridin-6-yl}-2-ethyl-4-(piperazin-1-yl)indazole-7-carboxamide]				1 to 10 µM	> 10 µM
Cc1cn2cc(NC(=O)c3ccc(C4CCNCC4)c4cn(C)nc34)cc(Cl)c2n1 [Compound 285, N-{8-chloro-2-methylimidazo[1,2-a]pyridin-6-yl}-2-methyl-4-(piperidin-4-yl) indazole-7-carboxamide]				0.1 to 1 µM	0.1 to 1 µM
Cc1cn2cc(NC(=O)c3ccc(N4CCNCC4)c4c[nH]nc34)cc(Cl)c2n1 [Compound 286, N-{8-chloro-2-methylimidazo[1,2-a]pyridin-6-yl}-4-(piperazin-1-yl)-2H-indazole-7-carboxamide]				> 10 µM	> 10 µM

Further lines, with some results ahead:

IC50 [1]	IC50 [4]	IC50 [5]	Compound	AC50 [2]	AC50 [3]
1 to 10 µM	1 to 10 µM	0.1 to 1 µM	Cc1cn2nc(NC(=O)c3ccc(N4CCNCC4)c4cc(C)oc34)cc(C)c2n1 [Compound 148, N-[2,8-dimethylimidazo[1,2-b]pyridazin-6-yl]-2-methyl-4-(piperazin-1-yl)-1-benzofuran-7-carboxamide]	1 to 10 µM	1 to 10 µM
> 10 µM	1 to 10 µM	< 0.1 µM	Cc1cn2cc(NC(=O)c3ccc(C4CCNCC4)c4ccoc34)cc(F)c2n1 [Compound 149, N-[8-fluoro-2-methylimidazo[1,2-a]pyridin-6-yl]-4-(piperidin-4-yl)-1-benzofuran-7-carboxamide hydrochloride]	1 to 10 µM	1 to 10 µM
0.1 to 1 µM	0.1 to 1 µM	< 0.1 µM	Cc1cn2cc(NC(=O)c3ccc(C4CCNCC4)c4oc(C)nc34)cc(F)c2n1 [Compound 187, N-[8-fluoro-2-methylimidazo[1,2-a]pyridin-6-yl]-2-methyl-7-(piperidin-4-yl)-1,3-benzoxazole-4-carboxamide]	0.1 to 1 µM	0.1 to 1 µM
1 to 10 µM	> 10 µM	0.1 to 1 µM	Cc1cn2cc(NC(=O)c3ccc(C4CCNCC4)c4c3OCC4)cc(F)c2n1 [Compound 188, N-[8-fluoro-2-methylimidazo[1,2-a]pyridin-6-yl]-4-(piperidin-4-yl)-2,3-dihydro-1-benzofuran-7-carboxamide]	> 10 µM	> 10 µM
1 to 10 µM	1 to 10 µM	< 0.1 µM	CCC1CN(c2ccc(C(=O)Nc3cc(F)c4nc(C)cn4c3)c3oc(C)cc23)CCN1 (stereo not drawn) [Compound 192]		
> 10 µM	> 10 µM	< 0.1 µM	Cc1cn2cc(NC(=O)c3ccc(N4CC(C)(C)NC(C)(C)C4)c4cc(C)oc34)cc(F)c2n1 [Compound 195]		
